Measurements taken from ChEMBL document CHEMBL5316358, “Structure-Activity Relationships of Ligand Binding to Oxysterol-Binding Protein (OSBP) and OSBP-Related Protein 4” (J Med Chem, 2023).

Columns and labels:
[1] = molecular target: T1, Oxysterol-binding protein 2 (Homo sapiens, UniProt Q969R2); assay: Displacement of [3H]-25-OHC from human ORP4 overexpressed in HEK293T cell lysate assessed as inhibition constant by competitive binding assay; assay type: subcellular
T1 sequence (Q969R2 whole entry): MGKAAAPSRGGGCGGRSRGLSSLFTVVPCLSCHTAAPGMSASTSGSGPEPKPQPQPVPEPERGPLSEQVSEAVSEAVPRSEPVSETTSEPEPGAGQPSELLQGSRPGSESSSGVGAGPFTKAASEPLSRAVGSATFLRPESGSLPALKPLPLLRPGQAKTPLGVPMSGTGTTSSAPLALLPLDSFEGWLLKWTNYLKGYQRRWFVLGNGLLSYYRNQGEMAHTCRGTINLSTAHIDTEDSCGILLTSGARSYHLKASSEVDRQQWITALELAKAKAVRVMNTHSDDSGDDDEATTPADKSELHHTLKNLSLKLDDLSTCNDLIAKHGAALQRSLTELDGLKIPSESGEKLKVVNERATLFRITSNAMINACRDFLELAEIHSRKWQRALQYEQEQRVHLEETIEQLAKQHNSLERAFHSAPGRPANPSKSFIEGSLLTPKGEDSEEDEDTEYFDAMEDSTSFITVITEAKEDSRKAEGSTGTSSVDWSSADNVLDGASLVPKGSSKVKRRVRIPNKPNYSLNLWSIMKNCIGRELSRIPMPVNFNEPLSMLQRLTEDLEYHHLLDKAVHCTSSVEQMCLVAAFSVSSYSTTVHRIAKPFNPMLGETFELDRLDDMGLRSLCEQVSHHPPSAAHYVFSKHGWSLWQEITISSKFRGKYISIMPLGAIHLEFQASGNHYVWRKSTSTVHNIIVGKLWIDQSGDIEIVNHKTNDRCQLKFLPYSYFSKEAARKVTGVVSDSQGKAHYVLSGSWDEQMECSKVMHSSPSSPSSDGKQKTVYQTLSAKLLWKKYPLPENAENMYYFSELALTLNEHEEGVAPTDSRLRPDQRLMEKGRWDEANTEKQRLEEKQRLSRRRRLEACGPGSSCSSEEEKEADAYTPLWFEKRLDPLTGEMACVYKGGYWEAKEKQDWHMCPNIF

[2] = molecular target: T2, Oxysterol-binding protein 1 (Homo sapiens, UniProt P22059); assay: Binding affinity to human OSBP
T2 sequence (P22059 whole entry): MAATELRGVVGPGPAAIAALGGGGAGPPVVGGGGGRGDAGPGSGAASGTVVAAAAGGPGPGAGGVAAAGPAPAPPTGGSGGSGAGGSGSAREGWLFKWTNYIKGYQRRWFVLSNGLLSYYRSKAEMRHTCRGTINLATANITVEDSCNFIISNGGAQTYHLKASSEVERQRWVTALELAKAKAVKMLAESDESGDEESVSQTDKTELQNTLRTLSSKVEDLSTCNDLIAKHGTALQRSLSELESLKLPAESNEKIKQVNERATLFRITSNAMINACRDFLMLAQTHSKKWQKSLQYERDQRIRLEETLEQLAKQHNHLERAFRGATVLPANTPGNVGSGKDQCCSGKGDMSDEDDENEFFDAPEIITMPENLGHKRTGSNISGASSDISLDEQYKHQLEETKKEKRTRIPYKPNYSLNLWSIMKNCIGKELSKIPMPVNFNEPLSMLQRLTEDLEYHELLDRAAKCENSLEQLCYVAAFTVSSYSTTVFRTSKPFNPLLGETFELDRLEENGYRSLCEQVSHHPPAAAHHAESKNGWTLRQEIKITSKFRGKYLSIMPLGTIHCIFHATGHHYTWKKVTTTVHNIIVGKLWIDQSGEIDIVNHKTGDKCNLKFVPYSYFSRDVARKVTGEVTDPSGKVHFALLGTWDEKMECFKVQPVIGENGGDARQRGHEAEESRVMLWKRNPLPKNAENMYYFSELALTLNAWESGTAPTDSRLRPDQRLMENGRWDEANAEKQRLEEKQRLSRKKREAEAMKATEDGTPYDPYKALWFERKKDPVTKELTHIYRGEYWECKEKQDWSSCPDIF

[3] = molecular target: T2, Oxysterol-binding protein 1; assay: Displacement of [3H]-25-OHC from human OSBP overexpressed in HEK293T cell lysate assessed as inhibition constant by competitive binding assay
[4] = molecular target: T2, Oxysterol-binding protein 1; assay: Displacement of [3H]-25-OHC from human OSBP overexpressed in HEK293T cell lysate assessed as inhibition constant; assay type: subcellular
[5] = molecular target: T1, Oxysterol-binding protein 2; assay: Displacement of [3H]-25-OHC from human ORP4 overexpressed in HEK293T cell lysate assessed as inhibition constant; assay type: subcellular

| SMILES | Ki [1] [nM] | Ki [3] [nM] | other results |
| --- | --- | --- | --- |
| CC(C)CC[C@H](O)[C@@H](C)[C@H]1CC[C@H]2[C@@H]3CC=C4C[C@@H](O)CC[C@]4(C)[C@H]3CC[C@]12C | > 3000 |  |  |
| C[C@H](CCCC(C)(C)O)[C@H]1CC[C@H]2[C@@H]3CC=C4C[C@@H](O)CC[C@]4(C)[C@H]3CC[C@]12C |  |  | Kd [2]: 22 nM |
| CC(C)[C@@H](O)CC[C@@H](C)[C@H]1CC[C@H]2[C@@H]3CC=C4C[C@@H](O)CC[C@]4(C)[C@H]3CC[C@]12C | 400 |  |  |
| CC(C)CCC[C@](C)(O)[C@H]1CC[C@H]2[C@@H]3CC=C4C[C@@H](O)CC[C@]4(C)[C@H]3CC[C@@]21C | 320 | 130 |  |
| C[C@@H](CO)CCC[C@@H](C)[C@H]1CC[C@H]2[C@@H]3CC=C4C[C@@H](O)CC[C@]4(C)[C@H]3CC[C@]12C | > 1000 |  |  |
| CCN(CC)CCO[C@H]1CC[C@@]2(C)C(=CC[C@@H]3[C@@H]2CC[C@]2(C)C(=O)CC[C@@H]32)C1 | > 50000 |  |  |
| COc1ccc(C(=O)O[C@H]2[C@H](O[C@@H]3[C@@H](OC(C)=O)[C@H](O[C@H]4C[C@H]5[C@@H]6CC=C7C[C@@H](O)CC[C@]7(C)[C@H]6CC[C@]5(C)[C@@]4(O)[C@H](C)C(=O)CCC(C)C)OC[C@@H]3O)OC[C@@H](O)[C@@H]2O)cc1 |  |  | Ki [4]: 16 nM; Ki [5]: 71 nM |
| C[C@H](O)[C@H]1CC[C@H]2[C@@H]3CC=C4C[C@@H](O)CC[C@]4(C)[C@H]3CC[C@]12C | > 100000 |  |  |
| C[C@H](CCCC(C)(C)O)[C@H]1CC[C@H]2[C@@H]3[C@H](O)C=C4C[C@@H](O)CC[C@]4(C)[C@H]3CC[C@]12C | 92 | 78 |  |
| C[C@H](CO)CCC[C@@H](C)[C@H]1CC[C@H]2[C@@H]3CC=C4C[C@@H](O)CC[C@]4(C)[C@H]3CC[C@]12C | > 870 |  |  |
| CCCCCCCC[C@](C)(O)[C@H]1CC[C@H]2[C@@H]3CC=C4C[C@@H](O)CC[C@]4(C)[C@H]3CC[C@@]21C | > 20000 | > 10000 |  |
| CC(C)C[C@](C)(O)[C@H]1CC[C@H]2[C@@H]3CC=C4C[C@@H](O)CC[C@]4(C)[C@H]3CC[C@@]21C | > 30000 | > 20000 |  |
| CC[C@](C)(O)[C@H]1CC[C@H]2[C@@H]3CC=C4C[C@@H](O)CC[C@]4(C)[C@H]3CC[C@@]21C | > 30000 | > 30000 |  |
| CC1(C)C[C@H]2[C@@H]3CC=C4C[C@@H](OC5CCCCO5)CC[C@]4(C)[C@H]3CC[C@]2(C)[C@H]1O (stereo partly drawn) |  |  | Ki [4]: 22 nM; Ki [5]: 98 nM |
| C[C@]12CC[C@H](O)CC1=CC[C@@H]1[C@@H]2CC[C@]2(C)C([C@H](O)CO)=CC[C@@H]12 | > 50000 | > 50000 |  |
| CC(C)CC[C@](C)(O)[C@H]1CC[C@H]2[C@@H]3CC=C4C[C@@H](O)CC[C@]4(C)[C@H]3CC[C@@]21C | > 2000 | 1300 |  |
| CC(C)CCN[C@@H](C)[C@H]1CC[C@H]2[C@@H]3CC=C4C[C@@H](O)CC[C@]4(C)[C@H]3CC[C@]12C | > 100000 | > 100000 |  |
| CCCC[C@](C)(O)[C@H]1CC[C@H]2[C@@H]3CC=C4C[C@@H](O)CC[C@]4(C)[C@H]3CC[C@@]21C | > 30000 | > 10000 |  |
| CCCCC[C@](C)(O)[C@H]1CC[C@H]2[C@@H]3CC=C4C[C@@H](O)CC[C@]4(C)[C@H]3CC[C@@]21C | 780 | 600 |  |
| C[C@@H]1[C@@]2(CC[C@](C)(O)CO2)O[C@H]2C=C3[C@@H]4[C@@H](O)C[C@H]5Cc6nc7c(nc6C[C@]5(C)[C@H]4C[C@@H](O)[C@]3(C)[C@]21O)C[C@@H]1CC[C@H]2[C@H]3C[C@@H]4O[C@@]5(CCC(C)(C)O5)[C@@H](C)[C@@H]4[C@@]3(C)[C@H](O)C[C@@H]2[C@@]1(C)C7 |  |  | Ki [4]: 28 nM; Ki [5]: > 360 nM |
| C[C@H](CCCC(C)(C)O)[C@H]1CC[C@H]2[C@@H]3CCC4C[C@@H](O)CC[C@]4(C)[C@H]3CC[C@]12C (stereo partly drawn) | 51 |  |  |
| CC(C)C[C@@](C)(O)[C@H]1CC[C@H]2[C@@H]3CC=C4C[C@@H](O)CC[C@]4(C)[C@H]3CC[C@@]21C | > 50000 | > 50000 |  |
| CCCCCCCC[C@@](C)(O)[C@H]1CC[C@H]2[C@@H]3CC=C4C[C@@H](O)CC[C@]4(C)[C@H]3CC[C@@]21C | > 100000 | > 100000 |  |
| CC(C)CC[C@@H](O)[C@](C)(O)[C@H]1CC[C@H]2[C@@H]3CC=C4C[C@@H](O)CC[C@]4(C)[C@H]3CC[C@]12C | > 15000 | > 30000 |  |
| CC(C)CC[C@@H](O)[C@@H](C)[C@H]1CC[C@H]2[C@@H]3CC=C4C[C@@H](O)CC[C@]4(C)[C@H]3CC[C@]12C [22(R)-HYDROXYCHOLESTEROL] | > 50000 |  |  |
| C[C@@H]1[C@]2(O[C@H]3C=C4[C@@H]5CC[C@H]6Cc7nc8c(nc7C[C@]6(C)[C@H]5C[C@@H](O)[C@]4(C)[C@]31O)C[C@@H]1CC[C@H]3C4=CC[C@@H]5[C@H](C)[C@@]6(OC[C@]45C(=O)C[C@@H]3[C@@]1(C)C8)OC(C)(C)C[C@H]6O)O[C@](C)(CO)C[C@H]2O [CEPHALOSTATIN 1] |  |  | Ki ([4]; hek293t): 39 nM; Ki ([5]; hek293t): 78 nM |
| C[C@@H]1CC[C@@]2(OC1)O[C@H]1C[C@H]3[C@@H]4CC=C5C[C@@H](O)CC[C@]5(C)[C@H]4CC[C@]3(C)[C@H]1[C@@H]2C [DISOGENIN] |  | > 100000 |  |
| CC(C)(O)[C@H]1O[C@H]2CC[C@@]3(C)[C@@](O)(CC[C@H]4Cc5c([nH]c6ccccc56)[C@@]43C)C2=CC1=O [PAXILLINE] | > 30000 | > 50000 |  |
| CC(C)=CCC/C(C)=C/Cc1c(O)cc(/C=C/c2cc(O)c3c(c2)C[C@@H]2C(C)(C)[C@H](O)[C@H](O)C[C@@]2(C)O3)cc1O [SCHWEINFURTHIN A] |  |  | Ki ([4]; hek293t): 68 nM; Ki ([5]; hek293t): 2600 nM |
